SMILES strings stand for the structures.

Assay in all cases: Method 1: intracellular Ca2+ release (FLIPR, Calcium 5) in recombinant CHO-K1 cells
What all share (assay type): cell-based

One assay has as its target T1, human S1PR5 receptor (Homo sapiens, UniProt Q9H228).
T1 construct: host or cells: CHO-K1
Conditions: agonist potency, determined with method 1 (symbols A-D); read-out: S1P5 EC50 range. The method in brief: (§1)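 Agonist EC50; CHO-K1 + Gq/i5 + aequorin; Calcium 5 dye 1 h 37 °C, 45 min RT; serial-dilution compound add; FLIPR read; normalized to phospho-fingolimod.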

The target in another assay is T2, human S1PR3 receptor (Homo sapiens, UniProt Q99500).
T2 construct: host or cells: CHO-K1
T2 sequence (Q99500 whole entry): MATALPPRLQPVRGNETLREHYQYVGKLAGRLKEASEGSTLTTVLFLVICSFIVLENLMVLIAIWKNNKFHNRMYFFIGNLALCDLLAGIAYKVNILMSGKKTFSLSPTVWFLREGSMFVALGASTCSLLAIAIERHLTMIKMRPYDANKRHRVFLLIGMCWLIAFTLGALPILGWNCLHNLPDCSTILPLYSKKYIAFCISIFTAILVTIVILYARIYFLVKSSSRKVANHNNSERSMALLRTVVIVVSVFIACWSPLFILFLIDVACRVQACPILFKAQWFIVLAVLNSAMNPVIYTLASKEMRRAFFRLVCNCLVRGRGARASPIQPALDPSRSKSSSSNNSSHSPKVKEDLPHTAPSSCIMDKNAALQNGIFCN
Conditions: (1): determined with method 1; read-out: S1P3 EC50. The method in brief: as §1

In a further assay the target is T3, human S1PR4 receptor (Homo sapiens, UniProt O95977).
T3 construct: host or cells: CHO-K1
T3 sequence (O95977 1-384): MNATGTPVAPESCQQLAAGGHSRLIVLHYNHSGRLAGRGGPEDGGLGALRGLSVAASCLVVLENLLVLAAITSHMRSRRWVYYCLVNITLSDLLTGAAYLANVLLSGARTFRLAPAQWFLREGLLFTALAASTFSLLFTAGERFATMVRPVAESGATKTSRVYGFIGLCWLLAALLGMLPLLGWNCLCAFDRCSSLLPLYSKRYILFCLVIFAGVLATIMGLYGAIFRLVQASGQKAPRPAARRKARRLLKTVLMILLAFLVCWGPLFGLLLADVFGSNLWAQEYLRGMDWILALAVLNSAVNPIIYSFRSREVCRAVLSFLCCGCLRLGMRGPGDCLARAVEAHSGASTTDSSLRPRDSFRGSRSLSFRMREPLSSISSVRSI
The settings on record: (1): determined with method 1; read-out: S1P4 EC50. The method, boiled down:
as §1

For a further assay, the target named is T4, human S1PR1 receptor (Homo sapiens, UniProt P21453).
T4 construct: host or cells: CHO-K1
T4 sequence (P21453 whole entry): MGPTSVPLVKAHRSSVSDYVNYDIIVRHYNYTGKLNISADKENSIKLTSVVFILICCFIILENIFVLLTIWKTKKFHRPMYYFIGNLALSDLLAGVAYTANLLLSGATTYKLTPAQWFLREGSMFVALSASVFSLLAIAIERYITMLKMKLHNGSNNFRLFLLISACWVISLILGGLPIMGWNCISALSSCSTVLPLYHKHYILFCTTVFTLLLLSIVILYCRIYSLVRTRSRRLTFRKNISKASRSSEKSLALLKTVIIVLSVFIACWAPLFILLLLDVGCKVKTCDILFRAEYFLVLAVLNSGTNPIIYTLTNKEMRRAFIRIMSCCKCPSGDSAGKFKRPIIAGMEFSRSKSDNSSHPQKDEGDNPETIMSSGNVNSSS
Conditions: (1): determined with method 1; read-out: S1P1 EC50. The method in brief: as §1

T1 sequence (Q9H228 whole entry): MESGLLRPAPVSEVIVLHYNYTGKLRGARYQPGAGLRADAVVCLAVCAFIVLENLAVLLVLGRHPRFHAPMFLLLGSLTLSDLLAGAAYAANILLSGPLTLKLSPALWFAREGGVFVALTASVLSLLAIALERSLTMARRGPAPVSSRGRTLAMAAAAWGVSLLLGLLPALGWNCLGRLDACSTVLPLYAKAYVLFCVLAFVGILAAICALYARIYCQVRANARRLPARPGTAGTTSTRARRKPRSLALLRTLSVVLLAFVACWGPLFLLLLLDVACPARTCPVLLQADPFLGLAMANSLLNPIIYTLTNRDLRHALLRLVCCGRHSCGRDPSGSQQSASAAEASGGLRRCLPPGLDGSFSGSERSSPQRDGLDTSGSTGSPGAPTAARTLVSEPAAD

As for `Cc1cccc(C)c1COc1ccc(-c2ncc3c(n2)CCN(CC(=O)O)C3)cc1` [Compound 33, 2-(2-(4-((2,6-dimethylbenzyl)oxy)phenyl)-7,8-dihydropyrido[4,3-d]pyrimidin-6(5H)-yl)acetic acid], the EC50 was 0.1 to 1 µM at human S1PR5 receptor, below 1 µM at human S1PR3 receptor, below 1 µM on human S1PR4 receptor and above 1 µM at human S1PR1 receptor.

Consider `O=C(O)CN1CCc2nc(-c3ccc(OCc4c(Cl)cccc4Cl)cc3)ncc2C1` [Compound 34, 2-(2-(4-((2,6-dichlorobenzyl)oxy)phenyl)-7,8-dihydropyrido[4,3-d]pyrimidin-6(5H)-yl)acetic acid], for which the EC50 on human S1PR5 receptor is 0.1 to 1 µM; at human S1PR3 receptor it was below 1 µM; at human S1PR4 receptor, below 1 µM; on human S1PR1 receptor, below 1 µM.

Consider `CCc1cccc(Cl)c1COc1ccc(-c2ncc3c(n2)CCN(CC(=O)O)C3)cc1` [Compound 35, 2-(2-(4-((2-chloro-6-ethylbenzyl)oxy)phenyl)-7,8-dihydropyrido[4,3-d]pyrimidin-6(5H)-yl)acetic acid], for which the concentration giving a half-maximal response (EC50) on human S1PR5 receptor is 0.1 to 1 µM; on human S1PR3 receptor it was below 1 µM; on human S1PR4 receptor, below 1 µM; at human S1PR1 receptor, below 1 µM.

Consider `O=C(O)CCCN1CCc2nc(-c3ccc(OCc4ccc(Cl)cc4)cc3)ncc2C1` [Compound 40, 4-(2-(4-((4-chlorobenzyl)oxy)phenyl)-7,8-dihydropyrido[4,3-d]pyrimidin-6(5H)-yl)butanoic acid], for which the EC50 is below 0.01 µM at human S1PR5 receptor, above 1 µM on human S1PR3 receptor, above 1 µM on human S1PR4 receptor and above 1 µM on human S1PR1 receptor.

Regarding `CC(CC(=O)O)N1CCc2nc(-c3ccc(OCc4ccc(Cl)c(Cl)c4)cc3)ncc2C1` (centres unmarked) [Compound 45, 3-(2-(4-((3,4-dichlorobenzyl)oxy)phenyl)-7,8-dihydropyrido[4,3-d]pyrimidin-6(5H)-yl)butanoic acid], the EC50 at human S1PR5 receptor was 0.01 to 0.1 µM; at human S1PR3 receptor it was above 1 µM; at human S1PR4 receptor, above 1 µM; at human S1PR1 receptor, above 1 µM.

Turning to `O=C(O)CCCN1CCc2nc(Cc3ccccc3)ncc2C1` [Compound 50, 4-(2-benzyl-7,8-dihydropyrido[4,3-d]pyrimidin-6(5H)-yl)butanoic acid], the EC50 at human S1PR5 receptor was 1 to 10 µM; at human S1PR3 receptor, above 1 µM; at human S1PR4 receptor it was above 1 µM; on human S1PR1 receptor it was above 1 µM.

As to `O=C(O)CCCN1CCc2nc(Cc3c(F)cccc3F)ncc2C1` [Compound 51, 4-(2-(2,6-difluorobenzyl)-7,8-dihydropyrido[4,3-d]pyrimidin-6(5H)-yl)butanoic acid], the 50% effective concentration (EC50) is 1 to 10 µM on human S1PR5 receptor, above 1 µM at human S1PR3 receptor, above 1 µM on human S1PR4 receptor and above 1 µM at human S1PR1 receptor.

In the case of `O=C(O)C1CC(N2CCc3nc(Cc4c(F)cccc4F)ncc3C2)C1` (centres unmarked) [Compound 53, 3-(2-(2,6-difluorobenzyl)-7,8-dihydropyrido[4,3-d]pyrimidin-6(5H)-yl)cyclobutanecarboxylic acid], the 50% effective concentration (EC50) is 1 to 10 µM on human S1PR5 receptor, above 1 µM on human S1PR3 receptor, above 1 µM at human S1PR4 receptor and above 1 µM at human S1PR1 receptor.

Turning to `O=C(O)C1CC(N2CCc3nc(C#Cc4ccc(Cl)cc4)ncc3C2)C1` (centres unmarked) [Compound 54, 3-(2-((4-chlorophenyl)ethynyl)-7,8-dihydropyrido[4,3-d]pyrimidin-6(5H)-yl)cyclobutanecarboxylic acid], the EC50 on human S1PR5 receptor is 1 to 10 µM; on human S1PR3 receptor, above 1 µM; at human S1PR4 receptor, above 1 µM; on human S1PR1 receptor it was above 1 µM.

In the case of `Cc1ccccc1C#Cc1ncc2c(n1)CCN(C1CC(C(=O)O)C1)C2` (centres unmarked) [Compound 55, 3-(2-(o-tolylethynyl)-7,8-dihydropyrido[4,3-d]pyrimidin-6(5H)-yl)cyclobutanecarboxylic acid], the concentration for a half-maximal effect (EC50) was 1 to 10 µM at human S1PR5 receptor, above 1 µM at human S1PR3 receptor, above 1 µM at human S1PR4 receptor and above 1 µM at human S1PR1 receptor.

Take `CCOc1ccc(C#Cc2ncc3c(n2)CCN(C2CC(C(=O)O)C2)C3)cc1` (centres unmarked) [Compound 56, 3-(2-((4-ethoxyphenyl)ethynyl)-7,8-dihydropyrido[4,3-d]pyrimidin-6(5H)-yl)cyclobutanecarboxylic acid]: the concentration for a half-maximal effect (EC50) at human S1PR5 receptor is 1 to 10 µM; on human S1PR3 receptor, above 1 µM; at human S1PR4 receptor, above 1 µM; at human S1PR1 receptor, above 1 µM.

For the compound `O=C(O)C1CC(N2CCc3nc(C#Cc4ccc(F)cc4)ncc3C2)C1` (centres unmarked) [Compound 57, 3-(2-((4-fluorophenyl)ethynyl)-7,8-dihydropyrido[4,3-d]pyrimidin-6(5H)-yl)cyclobutanecarboxylic acid], the EC50 on human S1PR5 receptor is 1 to 10 µM; at human S1PR3 receptor, above 1 µM; on human S1PR4 receptor it was above 1 µM; on human S1PR1 receptor, above 1 µM.

With `CC(C)c1ccc(C#Cc2ncc3c(n2)CCN(C2CC(C(=O)O)C2)C3)cc1` (centres unmarked) [Compound 58, 3-(2-((4-isopropylphenyl)ethynyl)-7,8-dihydropyrido[4,3-d]pyrimidin-6(5H)-yl)cyclobutanecarboxylic acid], the EC50 at human S1PR5 receptor is 1 to 10 µM; at human S1PR3 receptor, above 1 µM; on human S1PR4 receptor, above 1 µM; on human S1PR1 receptor it was above 1 µM.

As to `O=C(O)C1CC(N2CCc3nc(C#Cc4ccc(OCc5ccccc5)cc4)ncc3C2)C1` (centres unmarked) [Compound 59, 3-(2-((4-(benzyloxy)phenyl)ethynyl)-7,8-dihydropyrido[4,3-d]pyrimidin-6(5H)-yl)cyclobutanecarboxylic acid], the EC50 on human S1PR5 receptor is 1 to 10 µM; on human S1PR3 receptor, above 1 µM; on human S1PR4 receptor, above 1 µM; at human S1PR1 receptor, above 1 µM.

Regarding `O=C(O)C1CC(N2CCc3nc(C#Cc4ccccc4Cl)ncc3C2)C1` (centres unmarked) [Compound 60, 3-(2-((2-chlorophenyl)ethynyl)-7,8-dihydropyrido[4,3-d]pyrimidin-6(5H)-yl)cyclobutanecarboxylic acid], the EC50 at human S1PR5 receptor is 1 to 10 µM; at human S1PR3 receptor it was above 1 µM; at human S1PR4 receptor, above 1 µM; on human S1PR1 receptor it was above 1 µM.

On to `O=C(O)C1CC(N2CCc3nc(C#Cc4cc(F)cc(F)c4)ncc3C2)C1` (centres unmarked) [Compound 61, 3-(2-((3,5-difluorophenyl)ethynyl)-7,8-dihydropyrido[4,3-d]pyrimidin-6(5H)-yl)cyclobutanecarboxylic acid], for which the EC50 was 1 to 10 µM on human S1PR5 receptor, above 1 µM at human S1PR3 receptor, above 1 µM on human S1PR4 receptor and above 1 µM at human S1PR1 receptor.

For `O=C(O)C1CC(N2CCc3nc(C#Cc4cccc(Cl)c4)ncc3C2)C1` (centres unmarked) [Compound 62, 3-(2-((3-chlorophenyl)ethynyl)-7,8-dihydropyrido[4,3-d]pyrimidin-6(5H)-yl)cyclobutanecarboxylic acid], the EC50 at human S1PR5 receptor is 1 to 10 µM; at human S1PR3 receptor, above 1 µM; on human S1PR4 receptor, above 1 µM; on human S1PR1 receptor, above 1 µM.

For the compound `CC(CCC(=O)O)N1CCc2nc(-c3ccc(OCc4ccccc4)cc3)ncc2C1` (centres unmarked) [Compound 64, 4-(2-(4-(benzyloxy)phenyl)-7,8-dihydropyrido[4,3-d]pyrimidin-6(5H)-yl)pentanoic acid], the 50% effective concentration (EC50) on human S1PR5 receptor is below 0.01 µM; at human S1PR3 receptor it was above 1 µM; at human S1PR4 receptor, above 1 µM; at human S1PR1 receptor, above 1 µM.

Consider `CC(CCC(=O)O)N1CCc2nc(-c3ccc(OCc4cccc(Cl)c4)cc3)ncc2C1` (centres unmarked) [Compound 65, 4-(2-(4-((3-chlorobenzyl)oxy)phenyl)-7,8-dihydropyrido[4,3-d]pyrimidin-6(5H)-yl)pentanoic acid], for which the EC50 is 0.01 to 0.1 µM at human S1PR5 receptor, above 1 µM on human S1PR3 receptor, above 1 µM on human S1PR4 receptor and above 1 µM on human S1PR1 receptor.

As to `CC(CCC(=O)O)N1CCc2nc(-c3ccc(OCc4ccc(Cl)cc4)cc3)ncc2C1` (centres unmarked) [Compound 66, 4-(2-(4-((4-chlorobenzyl)oxy)phenyl)-7,8-dihydropyrido[4,3-d]pyrimidin-6(5H)-yl)pentanoic acid], the EC50 was below 0.01 µM on human S1PR5 receptor, above 1 µM at human S1PR3 receptor, above 1 µM on human S1PR4 receptor and above 1 µM on human S1PR1 receptor.

`O=C(O)CCN1CCc2nc(-c3ccc(OCc4ccc(Cl)cc4)cc3)ncc2C1` [Compound 74, 3-(2-(4-((4-chlorobenzyl)oxy)phenyl)-7,8-dihydropyrido[4,3-d]pyrimidin-6(5H)-yl)propanoic acid]: the EC50 on human S1PR5 receptor was below 0.01 µM; on human S1PR3 receptor, above 1 µM; on human S1PR4 receptor it was above 1 µM; on human S1PR1 receptor, above 1 µM.

As for `O=C(O)CCN1CCc2nc(-c3ccc(OCc4cccc(OC(F)(F)F)c4)cc3)ncc2C1` [Compound 82, 3-(2-(4-((3-(trifluoromethoxy)benzyl)oxy)phenyl)-7,8-dihydropyrido[4,3-d]pyrimidin-6(5H)-yl)propanoic acid], the EC50 on human S1PR5 receptor was below 0.01 µM; on human S1PR3 receptor it was above 1 µM; at human S1PR4 receptor, above 1 µM; at human S1PR1 receptor it was above 1 µM.

Take `O=C(O)CCN1CCc2nc(-c3ccc(OCc4ccc(OC(F)F)cc4)cc3)ncc2C1` [Compound 83, 3-(2-(4-((4-(difluoromethoxy)benzyl)oxy)phenyl)-7,8-dihydropyrido[4,3-d]pyrimidin-6(5H)-yl)propanoic acid]: the half-maximal effective concentration (EC50) at human S1PR5 receptor is below 0.01 µM; at human S1PR3 receptor, above 1 µM; at human S1PR4 receptor, above 1 µM; at human S1PR1 receptor, above 1 µM.
